Source: US7365064B2, “Benzoxazine and benzothiazine derivatives and pharmaceutical compositions containing them” (Dr. Reddy's Laboratories Limited, priority 2001, dated 2008)
Counter-ions that a name gives are not always drawn.

Assays:
[1] = target: T1, hPPARγ (Homo sapiens, UniProt P37231); assay: Determination of hPPARγ activity (GAL4 fusion luciferase reporter in HEK-293 cells); assay type: cell-based; conditions: compound concentration 1 μM
T1 construct: expressed in transfected cells; host or cells: HEK-293
T1 sequence (P37231 238-503 limits assumed): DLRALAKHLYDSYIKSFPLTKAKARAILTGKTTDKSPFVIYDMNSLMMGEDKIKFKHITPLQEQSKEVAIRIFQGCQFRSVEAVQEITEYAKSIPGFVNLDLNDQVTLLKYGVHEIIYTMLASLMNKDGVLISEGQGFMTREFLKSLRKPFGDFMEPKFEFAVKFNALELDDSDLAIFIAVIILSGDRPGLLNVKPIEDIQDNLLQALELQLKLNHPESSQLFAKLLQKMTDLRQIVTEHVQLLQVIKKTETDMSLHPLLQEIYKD
Protocol: b) Determination of hPPARγ Activity
Ligand binding domain of hPPARγ is fused to DNA binding domain of Yeast transcription factor GAL4 in eucaryotic expression vector. Using lipofectamine (Gibco BRL, USA) as transfecting reagent HEK-293 cells are transfected with this plasmid and a reporter plasmid harboring the luciferase gene driven by a GAL4 specific promoter. Compound can be added at 1 μM concentration after 48 hrs of transfection and incubated overnight Luciferase activity as a function of drug binding/activation capacity of PPARγ1 will be measured using Packard Luclite kit (Packard, USA) in Packard Top Cout (Ivan Sadowski, Brendan Bell, Peter Broag and Melvyn Hollis. Gene. 1992. 118: 137-141; Guide to Eukaryotic Transfections with Cationic Lipid Reagents. Life Technologies, GIBCO BRL, USA).

[2] = test system: C57BL/KsJ-db/db mice; assay: Blood sugar and triglyceride lowering in db/db mice; assay type: in vivo; conditions: 3 mg/kg oral gavage daily for 6 days
From the text: Mutation in colonies of laboratory animals and different sensitivities to dietary regimens have made the development of animal models with non-insulin dependent diabetes and hyperlipidemia associated with obesity and insulin resistance possible. Genetic models such as db/db and ob/ob (Diabetes, (1982) 31(1): 1-6) mice and zucker fa/fa rats have been developed by the various laboratories for understanding the pathophysiology of disease and testing the efficacy of new antidiabetic compounds (Diabetes, (1983) 32: 830-838; Annu. Rep. Sankyo Res. Lab. (1994). 46: 1-57). The homozygous animals, C57 BL/KsJ-db/db mice developed by Jackson Laboratory, US, are obese, hyperglycemic, hyperinsulinemic and insulin resistant (J. Clin. Invest., (1990) 85 : 962-967), whereas heterozygous are lean and normoglycemic. In db/db model, mouse progressively develops insulinopenia with age, a feature commonly observed in late stages of human type II diabetes when blood sugar levels are insufficiently controlled. The state of pancreas and its course vary according to the models. Since this model resembles that of type II diabetes mellitus, the compounds of the present invention will be tested for blood sugar and triglycerides lowering activities.
Male C57BL/KsJ-db/db mice of 8 to 14 weeks age, having body weight range of 35 to 60 grams, bred at Dr. Reddy's Research Foundation (DRF) animal house, were used in the experiment. The mice are provided with standard feed (National Institute of Nutrition (NIN), Hyderabad, India) and acidified water, ad libitum. The animals having more than 350 mg/dl blood sugar will be used for testing. The number of animals in each group was 4.
Test compounds are suspended on 0.25% carboxymethyl cellulose and administered to test group at a dose of 0.1 mg to 30 mg/kg through oral gavage daily for 6 days. The control group receives vehicle (dose 10 ml/kg). On 6th day the blood samples will be collected one hour after administration of test compounds/vehicle for assessing the biological activity.
The random blood sugar and triglyceride levels can be measured by collecting blood (100 μl) through orbital sinus, using heparinised capillary in tubes containing EDTA which was centrifuged to obtain plasma. The plasma glucose and triglyceride levels can be measured spectrometrically, by glucose oxidase and glycerol-3-PO4 oxidase/peroxidse enzyme (Dr. Reddy's Lab. Diagnostic Division Kits, Hyderabad, India) methods respectively.
The blood sugar and triglycerides lowering activities of the test compound are calculated according to the formula.
1. Percent reduction in Blood sugar/triglycerides/total cholesterol will be calculated according to the formula: […]

[3] = target: T2, hPPARα (Homo sapiens, UniProt Q07869); assay: Determination of hPPARα activity (GAL4 fusion luciferase reporter in HEK-293 cells); assay type: cell-based; conditions: compound concentration 50 μM
T2 construct: expressed in transfected cells; host or cells: HEK-293
T2 sequence (Q07869 239-466 limits assumed): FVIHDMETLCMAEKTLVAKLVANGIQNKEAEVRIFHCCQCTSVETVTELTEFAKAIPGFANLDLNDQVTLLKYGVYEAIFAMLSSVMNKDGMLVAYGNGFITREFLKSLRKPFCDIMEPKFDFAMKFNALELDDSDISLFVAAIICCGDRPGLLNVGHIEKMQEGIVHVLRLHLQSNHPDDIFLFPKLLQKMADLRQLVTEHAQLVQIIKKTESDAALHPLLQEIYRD
Protocol: a) Determination of hPPARα Activity
Ligand binding domain of hPPARα was fused to DNA binding domain of Yeast transcription factor Gal 4 in eucaryotic expression vector. Using superfect (Qiagen, Germany) as transfecting reagent HEK-293 cells are transfected with this plasmid and a reporter plasmid harboring the luciferace gene driven by a GAL4 specific promoter. Compound can be added at different concentrations after 42 hrs of transfection and incubated overnight. Luiciferase activity as a function of compound binding/activation capacity of PPARα will be measured using Packard Luclite kit (Packard, USA) in Top Count (Ivan Sadowsi, Brendan Bell, Peter Broag and Melvyn Hollis. Gene. 1992. 118: 137-141; Superfect Transfetion Reagent Handbook February 1997. Qiagen, Germany.

[4] = test system: Swiss albino mice; assay: Plasma triglyceride and total cholesterol lowering activity in Swiss albino mice and guinea pigs; assay type: in vivo; conditions: 10 mg/kg orally for 6 days; species not named
Protocol: c) Plasma Triglyceride and Total Cholesterol Lowering Activity in Swiss Albino Mice and Gunie Pigs
Male Swiss albino mice (SAM) and male Guinea pigs were obtained from NIN and housed in DRF animal house. All these animals are maintained under 12 hour light and dark cycle at 25±1° C. Animals were given standard laboratory chow (NIN, Hyderabad, India) and water, ad libitum. SAM of 20-25 g body weight range and Guinea pigs of 500-760 g body weight range are used (Oliver, P., Plancke, M. O., Marzin, D., Clavey, V., Sauzieres, J and Fruchatt, J. C. Effects of fenofibrate, gemfibrozil and nicotinic acid on plasma lipoprotein levels in normal and hyperlipidemic mice. Atherosclerosis. 1988. 70 : 107-114).
The test compounds were administered orally to Swiss albino mice at 0.3 to 30 mg/kg/day dose for 6 days. Control mice are treated with vehicle (0.25% Carboxymethylcellulose; dose 10 ml/kg). The test compounds are administered orally to Guinea pigs at 0.3 to 30 mg/kg/day dose for 6 days. Control animals are treated with vehicle (0.25% Carboxymethylcellulose; dose 5 ml/kg).
The blood samples were collected in fed state 1 hour after drug administration on 0 and 6 day of treatment The blood was collected from the retro-orbital sinus through heparinised capillary in EDTA containing tubes. After centrifugation, plasma sample was separated for triglyceride and total cholesterol (Wieland, O. Methods of Enzymatic analysis. Bergermeyer, H. O., Ed., 1963. 211-214; Trinder, P. Ann. Clin. Biochem. 1969. 6: 24-27). Measurement of plasma triglyceride were done using commercial kits (Dr. Reddy's Diagnostic Division, Hyderabad, India).
(§1) 1. Percent reduction in Blood sugar/triglycerides/total cholesterol will be calculated according to the formula:
(§2) [formula] • OC=Zero day control group value • OT=Zero day treated group value • TC=Test day control group value • TT=Test day treated group value

[5] = test system: hypercholesterolemic Sprague Dawley rats; assay: Plasma triglyceride and cholesterol lowering activity in hypercholesterolemic rat models; assay type: in vivo; conditions: 10 mg/kg orally for 3 days; for HDL (%) ↑: increase; for Total Cholesterol (%) ↓ / Triglyceride (%) ↓ / LDL (%) ↓ / VLDL (%) ↓: reduction; for LDL (%) ↓: LDL calculated from total cholesterol; for LDL (%) ↓ / VLDL (%) ↓: HDL and triglyceride; for VLDL (%) ↓: VLDL calculated from total cholesterol
Protocol: b) Plasma Triglyceride and Cholesterol Lowering Activity in Hypercholesterolemic Rat Models
Male Sprague Dawley rats (NIN stock) were bred in DRF animal house. Animals were maintained under 12 hour light and dark cycle at 25±1° C. Rats of 180-200 gram body weight range were used for the experiment. Animals are made hypercholesterolemic by feeding 2% cholesterol and 1% sodium cholate mixed with standard laboratory chow [National Institute of Nutrition (NIN), Hyderabad, India] […] for 6 days. Throughout the experimental period the animals were maintained on the same diet (Petit, D., Bonnefis, M. T., Rey, C and Infante, R. Effects of ciprofibrate on liver lipids and lipoprotein synthesis in normo- and hyperlipidemic rats. Atherosclerosis. 1988. 74 : 215-225).
The test compounds can be administered orally at a dose 0.1 to 30 mg/kg/day for 3 days. Control group was treated with vehicle alone (0.25% Carboxymethylcellulose; dose 10 ml/kg).
The blood samples were collected in fed state 1 hour after drug administration on 0 and 3 day of compound treatment. The blood was collected from the retro-orbital sinus through heparinsed capillary in EDTA containing tubes. After centrifugation, plasma sample was separated for total cholesterol, HDL and triglyceride estimations. Measurement of plasma, triglyceride, total cholesterol and HDL are were done using commercial kits (Dr. Reddy's Laboratory, Diagnostic Division, India). LDL and VLDL cholesterol were calculated from the data obtained for total cholesterol, HDL and triglyceride. The reduction of various parameters examined are calculated according to the formula.
as §1, §2
2. LDL and VLDL cholesterol levels will be calculated according to the formula:
[formula] VLDL cholesterol in mg/dl=[Total cholesterol−HDL cholesterol−LDL cholesterol]mg/dl.

SMILES	PPARγ [1]	Reduction in Blood Glucose Level (%) [2]	Triglyceride Lowering (%) [2]	PPARα [3]	Triglyceride Lowering (%) [4]	HDL (%) ↑ [5]	Total Cholesterol (%) ↓ [5]	Triglyceride (%) ↓ [5]	LDL (%) ↓ [5]	VLDL (%) ↓ [5]
CCOC(Cc1ccc(NCCCN2CCOc3cc(F)ccc32)cc1)C(=O)O (stereo not shown) [Example 18, 3-[4-{3-(7-Fluoro-3,4-dihydro-2H-benzo[b][1,4]oxazin-4-yl)propylamino}phenyl]-2-ethoxypropanoic acid arginine salt]	1.2	16%	35%	4.4	61%	260%	64%	77%	74%	77%
CCOC(Cc1ccc(NCCCN2CCOc3ccccc32)cc1)C(=O)O (stereo not shown) [Example 3, 3-[4-{3-(3,4-Dihydro-2H-benzo[b][1,4]oxazin-4-yl)propylamino}phenyl]-2-ethoxypropanoic acid arginine salt]	3.0	33%	29%	4.7	70%	254%	69%	77%	80%	77%
CCOC(Cc1ccc(NCc2ccc(OCCCN3CCOc4ccccc43)cc2)cc1)C(=O)O (stereo not shown) [Example 23, 2-Ethoxy-3-[4-{4-(3-(3,4-dihydro-2H-benzo[b][1,4]oxazin-4-yl)propyloxy)benzyl}aminophehyl]propanoic acid arginine salt]	4.4	–	–	4.2	–	–	–	–	–	–
CCCCCCCN(CCN1C(=O)COc2ccccc21)c1ccc(CC(OCC)C(=O)O)cc1 (stereo not shown) [Example 6, 3-[4-N-Heptyl-N-{2-(3-oxo-3,4-dihydro-2H-benzo[b][1,4]oxazin-4-yl)ethylamino}phenyl]-2-ethoxypropanoic acid arginine salt]	–	–	–	–	27%	–	–	–	–	–
CCOC(Cc1cccc(NCCCN2CCOc3ccccc32)c1)C(=O)O (stereo not shown) [Example 15, 3-[3-{3-(3,4-Dihydro-2H-benzo[b][1,4]oxazin-4-yl)propylamino}phenyl]-2-ethoxypropanoic acid arginine salt]	–	–	–	–	43%	–	–	–	–	–
CCOC(Cc1ccc(NCCCN2CCSc3ccccc32)cc1)C(=O)O (stereo not shown) [Example 27, 2-Ethoxy-3-[4-{3-3,4-dihydro-2H-benzo[b][1,4]thiazin-4-yl)propylamino}phenyl]propanoic acid arginine salt]	3.5	–	–	4.3	–	–	–	–	–	–
CCCCCCCN(CC(=O)N1CCOc2ccccc21)Cc1ccc(CC(OCC)C(=O)O)cc1 (stereo not shown) [Example 9, 2-Ethoxy-3-[4-{N-heptyl-N-(2-(3,4-dihydro-2H-benzo[b]oxazin-4-yl)-2-oxoethyl)aminomethyl}phenyl]propanoic acid arginine salt]	6.2	–	–	4.6	–	–	–	–	–	–
